From patent US20230047825A1, “ANTIMICROBIAL PEPTIDES” (priority 2019, published 2023)
Values after ≈ are worked out from the molar mass of the structure shown. Like-named read-outs stand apart in the source and are kept apart here. Where a SMILES comes first, the peptide text is derived from it.

Columns and labels:
Calu-3 = assay: Cytotoxicity assay; type: cell-based; settings: value printed in parentheses
Klebsiella pneumoniae M6 = type: cell-based; settings: for MIC on initial panels: medium and unit not given
P. aeruginosa RP73 = assay: Antibacterial activity assay (broth microdilution MIC); type: cell-based, Pseudomonas aeruginosa; settings: in µg/mL
Method: Antibacterial activity assay.
(§1) Synergy experiments were performed following a checkerboard protocol.

[1] = tested on: Escherichia coli NCTC 12923; type: cell-based; settings: for MIC / MIC, Stability in serum (MH) / MIC on initial panels: EC12923; for MIC / MIC on initial panels: in µg/mL; for MIC on initial panels: medium and unit not given; for MIC, Peptide concentration: NCTC 12923
[2] = tested on: Acinetobacter baumannii ATCC 17978; type: cell-based; settings: in µg/mL; for MIC / MIC on initial panels: AB17978; for MIC on initial panels: medium and unit not given; for MIC, Stability in serum (MH): Ab17978
A549 = assay: Cytotoxicity assay; type: cell-based; settings: value printed in parentheses
[3] = Electrophysiology (Port-a-Patch patch-clamp) on model membranes
Excerpt: The depth of insertion into each membrane is shown as the Z-position for each residue, averaged over all four peptides, relative to the phosphate group plane in the upper POPE/POPG (A/E/I) or POPG (C/G/K) bilayer leaflet in six MD simulations. Positive or negative values indicate the peptides are below or above the phosphate group. Representative current traces illustrating membrane activity when DPhPE/DPhPG (B/F/J) or DPhPG (D/H/L) model membranes are challenged with each peptide at the indicated concentration (lowest concentration that induced detectable activity). Data is for pleurocidin (A-D), pleurocidin-KR (E-H) and pleurocidin-VA (I-L). Membrane disordering by each peptide in mixed POPE/POPG bilayers is shown with data obtained from ^2H solid-state NMR (M/N) or from MD simulations where order parameters are calculated for all lipids within 4 Å of a peptide (O/P).
Molecular dynamics simulations. Simulations were carried out on either the ARCHER Cray XC30 supercomputer, or Dell Precision quad core T3400 or T3500 workstations equipped with a 1 kW Power supply (PSU) and two NVIDA PNY GeForce GTX570 or GTX580 graphics cards using Gromacs.^53 The CHARMM36 all-atom force field was used in all simulations^54-56. All simulations were run, as described previously^20 and for a total of 200 nanoseconds and repeated twice, with peptides inserted at different positions and orientations, giving a total of approximately 4.0 μs simulation. Liposome preparation and circular dichroism (CD) spectroscopy. Small unilamellar vesicles (SUV) were produced and far-UV spectra of the peptides obtained as described previously^20 using a Chirascan Plus spectrometer (Applied Photophysics, Leatherhead, UK) with samples maintained at 310 K. For liposome experiments the lipid concentration was 5 mM and a peptide to lipid molar ratio of 1:100 was maintained while the SDS micelles concentration was 20 mM with 200 μM peptide. Electrophysiology experiments (Patch-clamp). Patch clamp experiments were performed using the Port-a-Patch® (Nanion Technologies GmbH, Munich, Germany) with giant unilamellar vesicles (GUVs) composed of DPhPE/DPhPG (60:40, mol:mol) or DPhPG prepared by the electroformation method using the Nanion Vesicle Prep Pro setup (Nanion Technologies GmbH, Munich, Germany) as described previously.^20
as §1

[4] = untitled table, medium/unit not given, values match RPMI of Table 2, in µg/mL
[5] = untitled table, medium/unit not given, values match RPMI of Table 2

MIC (Klebsiella pneumoniae M6; (MH), in µg/mL) | MIC (Klebsiella pneumoniae M6; (RPMI), in µg/mL) | MIC, Stability in serum (MH) (Klebsiella pneumoniae M6; No serum) [mg/L] | MIC, Stability in serum (MH) (Klebsiella pneumoniae M6; Serum (10% fetal bovine serum)) [mg/L] | MIC on initial panels (Klebsiella pneumoniae M6; in µg/mL) | MIC (Klebsiella pneumoniae M6; [4]) | MIC ([1]; (MH)) | MIC ([1]; (RPMI)) | MIC, Stability in serum (MH) ([1]; No serum) [mg/L] | MIC, Stability in serum (MH) ([1]; Serum (10% fetal bovine serum)) [mg/L] | MIC on initial panels [1] | MIC [1, 5] | MIC ([2]; (MH)) | MIC ([2]; (RPMI)) | MIC on initial panels [2] | MIC [2, 5] | MIC, Stability in serum (MH) ([2]; No serum) | MIC, Stability in serum (MH) ([2]; Serum (10% fetal bovine serum)) | SMILES | Peptide concentration necessary to start membrane activity ([3]; DPhPE/DPhPG) [µM] | Peptide concentration necessary to start membrane activity ([3]; DPhPG) [µM] | further results
4 | 4-8 | 4 (≈ 1.48 µM) | 4 (≈ 1.48 µM) | 4 | 4-8 | 1 | 2-4 | 1 (≈ 0.369 µM) | 0.5 (≈ 0.184 µM) | 1 | 2-4 | 1 | 8 | 1 | 8 | 1 | 0.5 | CC(C)C[C@@H](NC(=O)[C@@H](Cc1ccc(O)cc1)NC(=O)[C@@H](Cc1c[nH]cn1)NC(=O)[C@H](NC(=O)[C@@H](CC(C)C)NC(=O)[C@@H](C)NC(=O)[C@@H](C)NC(=O)[C@@H](CCCCN)NC(=O)CNC(=O)[C@H](NC(=O)[C@@H](Cc1c[nH]cn1)NC(=O)[C@@H](CCCCN)NC(=O)CNC(=O)[C@H](NC(=O)[C@@H](Cc1c[nH]cn1)NC(=O)[C@@H](C)NC(=O)[C@@H](C)NC(=O)[C@@H](CCCCN)NC(=O)[C@@H](CCCCN)NC(=O)[C@@H](Cc1ccccc1)NC(=O)[C@@H](Cc1ccccc1)NC(=O)[C@@H](CO)NC(=O)CNC(=O)[C@@H](Cc1c[nH]c2ccccc12)NC(=O)CN)C(C)C)C(C)C)[C@H](C)O)C(N)=O [D-pleurocidin] (HELM PEPTIDE1{G.[dW].G.[dS].[dF].[dF].[dK].[dK].[dA].[dA].[dH].[dV].G.[dK].[dH].[dV].G.[dK].[dA].[dA].[dL].[dT].[dH].[dY].[dL].[am]}$$$$V2.0; N-terminus assumed) | – | – | Toxicity Calu-3 (EC50), Peptide concentration (Calu-3): (41.9 ± 1.8) μg/ml; MIC on initial panels (P. aeruginosa RP73; medium and unit not given): 8-16; MIC (P. aeruginosa RP73; untitled table, medium/unit not given): 16-32; Toxicity A549 (EC50), Peptide concentration (A549): (79.3 ± 7.2) μg/ml
4 | 32 | 4 (≈ 1.48 µM) | 8 (≈ 2.95 µM) | 4 | 32 | 1-2 | 16 | 2 (≈ 0.738 µM) | 1 (≈ 0.369 µM) | 1-2 | 16 | 1-2 | 8 | 1-2 | 8 | 2 | 2 | CC(C)C[C@H](NC(=O)[C@H](Cc1ccc(O)cc1)NC(=O)[C@H](Cc1c[nH]cn1)NC(=O)[C@@H](NC(=O)[C@H](CC(C)C)NC(=O)[C@H](C)NC(=O)[C@H](C)NC(=O)[C@H](CCCCN)NC(=O)CNC(=O)[C@@H](NC(=O)[C@H](Cc1c[nH]cn1)NC(=O)[C@H](CCCCN)NC(=O)CNC(=O)[C@@H](NC(=O)[C@H](Cc1c[nH]cn1)NC(=O)[C@H](C)NC(=O)[C@H](C)NC(=O)[C@H](CCCCN)NC(=O)[C@H](CCCCN)NC(=O)[C@H](Cc1ccccc1)NC(=O)[C@H](Cc1ccccc1)NC(=O)[C@H](CO)NC(=O)CNC(=O)[C@H](Cc1c[nH]c2ccccc12)NC(=O)CN)C(C)C)C(C)C)[C@@H](C)O)C(N)=O [Pleurocidin, reference compound] (H-GWGSFFKKAAHVGKHVGKAALTHYL-NH2; N-terminus assumed) | 10 | 5 | –
– | – | 4 (≈ 1.42 µM) | 2 (≈ 0.709 µM) | 2 | 32 | – | – | 2 (≈ 0.709 µM) | 1 (≈ 0.354 µM) | 1 | 16 | – | – | 1 | 8 | 2 | 2 | CC(C)C[C@H](NC(=O)[C@H](Cc1ccc(O)cc1)NC(=O)[C@H](Cc1c[nH]cn1)NC(=O)[C@@H](NC(=O)[C@H](CC(C)C)NC(=O)[C@H](C)NC(=O)[C@H](C)NC(=O)[C@H](CCCNC(=N)N)NC(=O)CNC(=O)[C@@H](NC(=O)[C@H](Cc1c[nH]cn1)NC(=O)[C@H](CCCNC(=N)N)NC(=O)CNC(=O)[C@@H](NC(=O)[C@H](Cc1c[nH]cn1)NC(=O)[C@H](C)NC(=O)[C@H](C)NC(=O)[C@H](CCCNC(=N)N)NC(=O)[C@H](CCCNC(=N)N)NC(=O)[C@H](Cc1ccccc1)NC(=O)[C@H](Cc1ccccc1)NC(=O)[C@H](CO)NC(=O)CNC(=O)[C@H](Cc1c[nH]c2ccccc12)NC(=O)CN)C(C)C)C(C)C)[C@@H](C)O)C(N)=O [Pleurocidin-KR] (H-GWGSFFRRAAHVGRHVGRAALTHYL-NH2; N-terminus assumed) | 10 | 7.5 | MIC, Peptide concentration (Klebsiella pneumoniae M6): 2 mg/L (≈ 0.709 µM); MIC, Peptide concentration [1]: 16 mg/L (≈ 5.67 µM)
– | – | 16 (≈ 6.03 µM) | 8 (≈ 3.01 µM) | 4-8 | 32 | – | – | 1 (≈ 0.377 µM) | 1 (≈ 0.377 µM) | 1 | 32 | – | – | 1-2 | 32 | 2 | 4 | CC(C)C[C@H](NC(=O)[C@H](Cc1ccc(O)cc1)NC(=O)[C@H](Cc1c[nH]cn1)NC(=O)[C@@H](NC(=O)[C@H](CC(C)C)NC(=O)[C@H](C)NC(=O)[C@H](C)NC(=O)[C@H](CCCCN)NC(=O)CNC(=O)[C@H](C)NC(=O)[C@H](Cc1c[nH]cn1)NC(=O)[C@H](CCCCN)NC(=O)CNC(=O)[C@H](C)NC(=O)[C@H](Cc1c[nH]cn1)NC(=O)[C@H](C)NC(=O)[C@H](C)NC(=O)[C@H](CCCCN)NC(=O)[C@H](CCCCN)NC(=O)[C@H](Cc1ccccc1)NC(=O)[C@H](Cc1ccccc1)NC(=O)[C@H](CO)NC(=O)CNC(=O)[C@H](Cc1c[nH]c2ccccc12)NC(=O)CN)[C@@H](C)O)C(N)=O [Pleurocidin-VA] (H-GWGSFFKKAAHAGKHAGKAALTHYL-NH2; N-terminus assumed) | – | 2.5 | MIC, Peptide concentration [1]: 1 mg/L (≈ 0.377 µM)
